Laboratory results from patent US9789165B2 (Sanofi, priority 2013, dated 2017).
pEC50: −log10 of the molar value. In brackets after ≈: the same amount, converted by molar mass. Read-outs that look alike come from different tables or passages of the source. Square brackets hold non-standard residues; d marks the D form. Peptide text beside a SMILES is read from it. Nle = CCCC[C@H](N)C(=O)O; Aib = CC(C)(N)C(=O)O

Tests used:
[1] = Pharmacokinetic testing in mice, plasma LC/MS; assay type: in vivo; conditions: mouse, sc, 1 mg/kg s.c.
Experimental: Mice were dosed 1 mg/kg subcutaneously (s.c.). The mice were sacrified and blood samples were collected after 0.25, 0.5, 1, 2, 4, 8, 16 and 24 hours post application. Plasma samples were analyzed after protein precipitation via liquid chromatography mass spectrometry (LC/MS). PK parameters and half-life were calculated using WinonLin Version 5.2.1 (non-compartment model).
Pharmacokinetic profiles were determined as described in Methods.

[2] = biological target: T1, human glucagon receptor (hGLUC R) (Homo sapiens, UniProt P47871); assay: cAMP response of HEK-293 cells stably expressing human glucagon receptor (HTRF); assay type: cell-based; conditions: Table 6; cAMP formation
T1 construct: expressed in transfected cells
T1 sequence (P47871 26-477): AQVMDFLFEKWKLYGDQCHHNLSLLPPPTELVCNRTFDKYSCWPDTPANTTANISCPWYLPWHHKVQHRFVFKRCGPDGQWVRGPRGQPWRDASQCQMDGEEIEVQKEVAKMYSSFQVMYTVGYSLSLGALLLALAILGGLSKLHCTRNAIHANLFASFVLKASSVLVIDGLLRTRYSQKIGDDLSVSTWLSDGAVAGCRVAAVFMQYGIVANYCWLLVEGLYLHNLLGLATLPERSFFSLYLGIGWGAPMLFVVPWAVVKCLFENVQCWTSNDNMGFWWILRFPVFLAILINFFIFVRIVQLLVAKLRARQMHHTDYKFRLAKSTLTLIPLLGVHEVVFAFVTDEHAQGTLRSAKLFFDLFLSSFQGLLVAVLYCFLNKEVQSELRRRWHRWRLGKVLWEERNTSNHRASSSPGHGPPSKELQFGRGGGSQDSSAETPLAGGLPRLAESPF
Experimental: cAMP content of cells was determined using a kit from Cisbio Corp. (cat. no. 62AM4PEC) based on HTRF (Homogenous Time Resolved Fluorescence). For preparation, cells were split into T175 culture flasks and grown overnight to near confluency in medium (DMEM/10% FBS). Medium was then removed and cells washed with PBS lacking calcium and magnesium, followed by proteinase treatment with accutase (Sigma-Aldrich cat. no. A6964). Detached cells were washed and resuspended in assay buffer (1×HBSS; 20 mM HEPES, 0.1% BSA, 2 mM IBMX) and cellular density determined. They were then diluted to 400000 cells/ml and 25 μl-aliquots dispensed into the wells of 96-well plates. For measurement, 25 μl of test compound in assay buffer was added to the wells, followed by incubation for 30 minutes at room temperature.

[3] = Solubility testing in buffer systems, HPLC-UV of supernatant; assay type: physicochemical; conditions: buffer system
Experimental: Prior to the testing of solubility and stability of a peptide batch, its content was determined. Therefore, two parameters were investigated, its purity (HPLC-UV) and the amount of salt load of the batch (ion chromatography).
Therefore, solutions from solid samples were prepared in different buffer systems with a concentration of 1.0 mg/mL compound based on the previously determined content. HPLC-UV was performed after 2 h of gentle agitation from the supernatant, which was obtained by 20 min of centrifugation at 4000 rpm.
This analysis also served as starting point (t0) for the stability testing.
(§1) As HPLC/UPLC method, method D or E has been used.

[4] = assay type: physicochemical; conditions: buffer, 168 h
Experimental: After that time course, the sample was centrifuged for 20 min at 4000 rpm and the supernatant was analysed with HPLC-UV.
For determination of the amount of the remaining peptide, the peak areas of the target compound at t0 and t7 were compared, resulting in “% remaining peptide”, following the equation % remaining peptide=[(peak area peptide t7)×100]/peak area peptide t0.
The chemical stability is expressed as “% remaining peptide”.
as §1

[5] = test system: female diabetic dbdb-mice; assay: Glucose lowering in non-fasted female diabetic dbdb-mice; assay type: in vivo; conditions: 100 μg/kg s.c., baseline on average 29 mmol/l
Experimental: Female diabetic dbdb-mice (BKS.Cg−+Leprdb/+Leprdb/OlaHsd) 10 weeks of age at study start were used. Mice were habituated to feeding and housing conditions for at least 2 weeks. 7 days prior to study start, HbA1c were determined to allocate mice to groups, aiming to spread low, medium and high HbA1c-values and in consequence the group-means (n=8), as equally as possible. On the day of study, food was removed, directly before sampling for baseline glucose assessment (t=0 min). Immediately afterwards, compounds or vehicle (phosphor buffered saline, PBS) were administered subcutaneously, 100 μg/kg, 10 ml/kg. Afterwards, blood samples were drawn by tail tip incision at 15, 30, 60, 90, 120, 150, 180, 240, 360, 480 min and 24 h. Food was re-offered after the 480 min-sampling.
Data were analysed by 2-W-ANOVA on repeated measurements, followed by Dunnett's test as post-hoc assessment, level of significance p<0.05.
Female dbdb-mice, received 100 μg/kg of SEQ ID NO: 8, SEQ ID NO: 9 or phosphate buffered saline (vehicle control) subcutaneously, at time 0 min.

[6] = pH 4.5, target concentration 1.0 mg/mL, read-out: Solubility (pH 4.5)
[7] = pH 7.4, target concentration 1.0 mg/mL, read-out: Solubility (pH 7.4)

In the case of `CC[C@H](C)[C@H](NC(=O)[C@H](CO)NC(=O)[C@H](CC(C)C)NC(=O)[C@H](CC(=O)O)NC(=O)[C@H](CO)NC(=O)[C@@H](NC(=O)[C@H](Cc1ccccc1)NC(=O)[C@@H](NC(=O)CNC(=O)[C@H](CCC(=O)O)NC(=O)C(C)(C)NC(=O)[C@@H](N)Cc1ccc(O)cc1)[C@@H](C)O)[C@@H](C)O)C(=O)N[C@@H](CCC(N)=O)C(=O)N[C@@H](CCSC)C(=O)N[C@@H](CCC(=O)O)C(=O)N[C@@H](CCCCN)C(=O)N[C@@H](CCCNC(=N)N)C(=O)N[C@@H](C)C(=O)N[C@@H](C)C(=O)NC(C)(C)C(=O)N[C@@H](CCC(=O)O)C(=O)N[C@@H](Cc1ccccc1)C(=O)N[C@H](C(=O)N[C@@H](CCC(=O)O)C(=O)N[C@@H](Cc1c[nH]c2ccccc12)C(=O)N[C@@H](CC(C)C)C(=O)N[C@@H](CCCCN)C(=O)N[C@@H](C)C(=O)NCC(=O)NCC(=O)N1CCC[C@H]1C(=O)N[C@@H](CO)C(=O)N[C@@H](CO)C(=O)NCC(=O)N[C@@H](C)C(=O)N1CCC[C@H]1C(=O)N1CCC[C@H]1C(=O)N1CCC[C@H]1C(=O)N[C@@H](CO)C(N)=O)[C@@H](C)CC` [SEQ ID NO: 8, Y-Aib-E-G-T-F-T-S-D-L-S-I-Q-M-E-K-R-A-A-Aib-E-F-I-E-W-L-K-A-G-G-P-S-S-G-A-P-P-P-S-NH2] (H-Y[Aib]EGTFTSDLSIQMEKRAA[Aib]EFIEWLKAGGPSSGAPPPS-NH2), the Cmax [1] was 734 ng/mL, the half-life [1] was 18 min and the pEC50 [2] was under 6.00. The solubility at 2 h [3, 6] was over 1000 µg/mL, the solubility at 2 h [3, 7] was over 1000 µg/mL and the “Stability (pH 4.5), % remaining peptide” value [4] was 99%. The “Stability (pH 7.4), % remaining peptide” value [4] was 92% and the “maximal effect, glucose reduction” value [5] was about 12 mmol/L.
With `CCCC[C@H](NC(=O)[C@H](CCC(N)=O)NC(=O)[C@@H](NC(=O)[C@H](CO)NC(=O)[C@H](CC(C)C)NC(=O)[C@H](CC(=O)O)NC(=O)[C@H](CO)NC(=O)[C@@H](NC(=O)[C@H](Cc1ccccc1)NC(=O)[C@@H](NC(=O)CNC(=O)[C@H](CCC(=O)O)NC(=O)C(C)(C)NC(=O)[C@@H](N)Cc1ccc(O)cc1)[C@@H](C)O)[C@@H](C)O)[C@@H](C)CC)C(=O)N[C@@H](CCC(=O)O)C(=O)N[C@@H](CCCCN)C(=O)N[C@@H](CCCNC(=N)N)C(=O)N[C@@H](C)C(=O)N[C@@H](C)C(=O)NC(C)(C)C(=O)N[C@@H](CCC(=O)O)C(=O)N[C@@H](Cc1ccccc1)C(=O)N[C@H](C(=O)N[C@@H](CCC(=O)O)C(=O)N[C@@H](Cc1c[nH]c2ccccc12)C(=O)N[C@@H](CC(C)C)C(=O)N[C@@H](CCCCN)C(=O)N[C@@H](C)C(=O)NCC(=O)NCC(=O)N1CCC[C@H]1C(=O)N[C@@H](CO)C(=O)N[C@@H](CO)C(=O)NCC(=O)N[C@@H](C)C(=O)N1CCC[C@H]1C(=O)N1CCC[C@H]1C(=O)N1CCC[C@H]1C(=O)N[C@@H](CO)C(N)=O)[C@@H](C)CC` [SEQ ID NO: 10, Y-Aib-E-G-T-F-T-S-D-L-S-I-Q-Nle-E-K-R-A-A-Aib-E-F-I-E-W-L-K-A-G-G-P-S-S-G-A-P-P-P-S-NH2] (H-Y[Aib]EGTFTSDLSIQ[Nle]EKRAA[Aib]EFIEWLKAGGPSSGAPPPS-NH2) the solubility at 2 h [3, 6] was 960 µg/mL (≈ 234 µM), the solubility at 2 h [3, 7] was over 1000 µg/mL and the “Stability (pH 4.5), % remaining peptide” value [4] was 100%. The “Stability (pH 7.4), % remaining peptide” value [4] was 100%.
In the case of `CC[C@H](C)[C@H](NC(=O)[C@H](CO)NC(=O)[C@H](CC(C)C)NC(=O)[C@H](CC(=O)O)NC(=O)[C@H](CO)NC(=O)[C@@H](NC(=O)[C@H](Cc1ccccc1)NC(=O)[C@@H](NC(=O)CNC(=O)[C@H](CCC(=O)O)NC(=O)C(C)(C)NC(=O)[C@@H](N)Cc1ccc(O)cc1)[C@@H](C)O)[C@@H](C)O)C(=O)N[C@@H](CCC(N)=O)C(=O)N[C@@H](CC(C)C)C(=O)N[C@@H](CCC(=O)O)C(=O)N[C@@H](CCCCN)C(=O)N[C@@H](CCCNC(=N)N)C(=O)N[C@@H](C)C(=O)N[C@@H](C)C(=O)NC(C)(C)C(=O)N[C@@H](CCC(=O)O)C(=O)N[C@@H](Cc1ccccc1)C(=O)N[C@H](C(=O)N[C@@H](CCC(=O)O)C(=O)N[C@@H](Cc1c[nH]c2ccccc12)C(=O)N[C@@H](CC(C)C)C(=O)N[C@@H](CCCCN)C(=O)N[C@@H](C)C(=O)NCC(=O)NCC(=O)N1CCC[C@H]1C(=O)N[C@@H](CO)C(=O)N[C@@H](CO)C(=O)NCC(=O)N[C@@H](C)C(=O)N1CCC[C@H]1C(=O)N1CCC[C@H]1C(=O)N1CCC[C@H]1C(=O)N[C@@H](CO)C(N)=O)[C@@H](C)CC` [SEQ ID NO: 9, Y-Aib-E-G-T-F-T-S-D-L-S-I-Q-L-E-K-R-A-A-Aib-EFIEWLKAGGPSSGAPPPSN H2] (H-Y[Aib]EGTFTSDLSIQLEKRAA[Aib]EFIEWLKAGGPSSGAPPPS-NH2), the solubility at 2 h [3, 6] was 875 µg/mL (≈ 213 µM), the solubility at 2 h [3, 7] was 892 µg/mL (≈ 217 µM) and the “Stability (pH 4.5), % remaining peptide” value [4] was 100%. For the same molecule, the “Stability (pH 7.4), % remaining peptide” value [4] was 100% and the “maximal effect, glucose reduction” value [5] was about 16 mmol/L.
